According to US10081632B2, “Substituted tetrahydropyrido[3′,2′:4,5]pyrrolo[1,2-α]pyrazine-2-carboxamides as RSK inhibitors” (Phoenix Molecular Designs, priority 2016, dated 2018):
Entries after “also recorded” stand apart in the source; their conditions may differ.

Key:
[1] = Solubility assessment, 20 mg/ml solution; format: physicochemical; details: for Solubility, 20 mg/ml Solution: 100 mM in DMSO diluted in DMEM growth media to 20 mg/ml
Procedure: Solubility is an important property for therapeutic drug candidates. Poor solubility can lead to low bioavailability resulting in suboptimal drug delivery. It can also prevent the evaluation of test agents in animals because the concentration(s) needed to achieve the desired effect cannot be achieved to poor solubility. For solubility assessments, small molecules targeting RSK were compared. For these assessments, 100 mM solutions of the compounds dissolved in DMSO were diluted in DMEM growth media (Life Technologies) supplemented with fetal bovine serum (FBS, Life Technologies) and 100 units/ml penicillin and 100 units/ml streptomycin (Life Technologies) to make 20 mg/ml solutions. Once diluted, the solutions were vortexed and examined for the formation of precipitates. […] For Compound 26, a 100 mM solution of the compound dissolved in DMSO was diluted in phosphate buffered saline (Life Technologies) to make a 20 mg/ml solution. The stock of […] was chosen because this is the upper end of what would be required to dose mice for a range of studies including MTD, PK, PD and efficacy. The pH of this solution was determined to be 2, as previously described. […] At high concentrations some RSK inhibitors were highly soluble while others were not. Compound 0 is (R)—N-(1-benzyl-1H-pyrazol-4-yl)-9-methyl-6-oxo-6,7,8,9-tetrahydropyrido[3′,2′:4,5]pyrrolo[1,2-a]pyrazine-2-carboxamide. Compound 0 was not soluble, whereas Compounds 18, 20, 21, 25 and 26 were soluble under the same conditions (Table 5).

[2] = system: MDA-MB-231 cells; assay: Soft agar growth inhibition assay; format: cell-based; details: Homo sapiens, MDA-MB-231; growth in soft agar (SA); read-out: MDA-MB-231 IC50 (SA)
[3] = system: CD34+ cells; assay: Colony forming unit hematopoietic stem cell assay; format: cell-based, human
Procedure: The hematopoietic colony forming cell assay was conducted based on a protocol outlined by StemCell Technologies. […] Following the addition of CD34^+ cells isolated from human cord blood or peripheral blood (StemCell Technologies) at a final concentration of 5×10^2 cells per dish, the tubes were vortexed and allowed to stand for 5 minutes at room temperature. Next, the MethoCult mixtures were dispensed into 35 mm dishes (Corning Incorporated) through blunt end needles (StemCell Technologies) and 5 ml syringes (BD Biosciences) at a volume of 1.1 ml per dish. The medium was evenly distributed across the surface of each dish by gentle tilting and rotation. The dishes were then placed in a 100 mm culture dish (Grenier Bio-One) containing additional 35 mm dishes with sterile water to maintain humidity. […] The number of myeloid and erythroid derived colonies in both the treated and control dishes were counted and compared.

[4] = target: RSK2 (Homo sapiens (Human), UniProt P51812); assay: Radioisotope kinase assay (SignalChem), RSK2; format: biochemical; details: 33P-ATP, 30° C., 15 minutes
Procedure: The assay conditions for the RSK2 kinase target were optimized to yield acceptable enzymatic activity. In addition, the assays were optimized to give high signal-to-noise ratio.
Radioisotope assays (SignalChem) were performed for the evaluation of the kinase target profiling and all assays were performed in a designated radioactive working area. The kinase targets were RSK1, RSK2, RSK3, RSK4 and MK2.
The assay was initiated by the addition of ^33P-ATP and the reaction mixture incubated at 30° C. for 15 minutes. After the incubation period, the assay was terminated by spotting 10 μL of the reaction mixture onto Multiscreen phosphocellulose P81 plate. The Multiscreen phosphocellulose P81 plate was washed 3 times for approximately 15 minutes each in a 1% phosphoric acid solution. The radioactivity on the P81 plate was counted in the presence of scintillation fluid in a Trilux scintillation counter.
Blank controls were set up for each target kinase which included all the assay components except the addition of the appropriate substrate (which was replaced with equal volume of assay dilution buffer). The corrected activity for each target kinase was determined by removing the blank control value.

[5] = system: 4T1 cells; assay: Monolayer growth inhibition, Alamar blue assay; format: cell-based; details: Mus musculus; 4T1 (TNBC), 5 days, single dose on day 1
From the text: (§1) In all instances a single dose was given on day 1 of the experiment.

[6] = system: HCC1143 cells; assay: Monolayer growth inhibition, Alamar blue assay; format: cell-based; details: Homo sapiens; HCC1143 (TNBC), 5 days, single dose on day 1
From the text: as §1

[7] = system: HCC1937 cells; assay: Monolayer growth inhibition, Alamar blue assay; format: cell-based; details: Homo sapiens; HCC1937 (TNBC, BRCA Mutant), 5 days, single dose on day 1
From the text: as §1

[8] = system: JIMT-1 cells; assay: Monolayer growth inhibition, Alamar blue assay; format: cell-based; details: Homo sapiens; JIMT-1 (HER2), 5 days, single dose on day 1
From the text: as §1

[9] = system: MDA-MB-231 cells; assay: Monolayer growth inhibition, Alamar blue assay; format: cell-based; details: Homo sapiens; MDA-MB-231 (TNBC), 5 days, single dose on day 1
From the text: as §1

[10] = system: MDA-MB-435 cells; assay: Monolayer growth inhibition, Alamar blue assay; format: cell-based; details: Homo sapiens; MDA-MB-435 (Melanoma), 5 days, single dose on day 1
From the text: as §1

[11] = system: MDA-MB-468 cells; assay: Monolayer growth inhibition, Alamar blue assay; format: cell-based; details: Homo sapiens; MDA-MB-468 (TNBC), 5 days, single dose on day 1
From the text: as §1

[12] = system: PC3 cells; assay: Monolayer growth inhibition, Alamar blue assay; format: cell-based; details: Homo sapiens, PC-3; PC3 (Prostate), 5 days, single dose on day 1
From the text: as §1

[13] = system: SUM149 cells; assay: Monolayer growth inhibition, Alamar blue assay; format: cell-based; details: Homo sapiens; SUM149 (TNBC, BRCA Mutant), 5 days, single dose on day 1
From the text: as §1

[14] = system: SUM149-PTXR cells; assay: Monolayer growth inhibition, Alamar blue assay; format: cell-based, Human; details: Homo sapiens; SUM149-PTXR (TNBC, BRCA Mutant), 5 days, single dose on day 1
From the text: as §1

[15] = system: T47D cells; assay: Monolayer growth inhibition, Alamar blue assay; format: cell-based, Human; details: Homo sapiens; T47D (ER/PR), 5 days, single dose on day 1
From the text: as §1

[16] = system: HCC1937 cells; assay: Monolayer growth inhibition, crystal violet assay; format: cell-based; details: Homo sapiens; HCC1937 (TNBC, BRCA Mutant), 5 days, single dose on day 1
From the text: (§2) In all instances a single dose was given on day 1 of the experiment. […] Complete (100%) growth suppression was achievable with several of the compounds in multiple different cell lines.

[17] = system: JIMT-1 cells; assay: Monolayer growth inhibition, crystal violet assay; format: cell-based; details: Homo sapiens; JIMT-1 (HER2), 5 days, single dose on day 1
From the text: as §2

[18] = system: MDA-MB-468 cells; assay: Monolayer growth inhibition, crystal violet assay; format: cell-based; details: Homo sapiens; MDA-MB-468 (TNBC), 5 days, single dose on day 1
From the text: as §2

[19] = system: T47D cells; assay: Monolayer growth inhibition, crystal violet assay; format: cell-based; details: Homo sapiens; T47D (ER/PR), 5 days, single dose on day 1
From the text: as §2

[20] = system: 4T1 cells; assay: Monolayer growth inhibition, crystal violet assay; format: cell-based; details: Mus musculus; 4T1 (TNBC), 5 days, single dose on day 1
From the text: as §1

[21] = system: HCC1143 cells; assay: Monolayer growth inhibition, crystal violet assay; format: cell-based; details: Homo sapiens; HCC1143 (TNBC), 5 days, single dose on day 1
From the text: as §1

[22] = system: MDA-MB-231 cells; assay: Monolayer growth inhibition, crystal violet assay; format: cell-based; details: Homo sapiens; MDA-MB-231 (TNBC), 5 days, single dose on day 1
From the text: as §1

[23] = system: MDA-MB-435 cells; assay: Monolayer growth inhibition, crystal violet assay; format: cell-based; details: Homo sapiens; MDA-MB-435 (Melanoma), 5 days, single dose on day 1
From the text: as §1

[24] = system: PC3 cells; assay: Monolayer growth inhibition, crystal violet assay; format: cell-based; details: Homo sapiens, PC-3; PC3 (Prostate), 5 days, single dose on day 1
From the text: as §1

[25] = system: SUM149 cells; assay: Monolayer growth inhibition, crystal violet assay; format: cell-based; details: Homo sapiens; SUM149 (TNBC, BRCA Mutant), 5 days, single dose on day 1
From the text: as §1

[26] = system: SUM149-PTXR cells; assay: Monolayer growth inhibition, crystal violet assay; format: cell-based; details: Homo sapiens; SUM149-PTXR (TNBC, BRCA Mutant), 5 days, single dose on day 1
From the text: as §1

Sequence of RSK2 (P51812 whole entry): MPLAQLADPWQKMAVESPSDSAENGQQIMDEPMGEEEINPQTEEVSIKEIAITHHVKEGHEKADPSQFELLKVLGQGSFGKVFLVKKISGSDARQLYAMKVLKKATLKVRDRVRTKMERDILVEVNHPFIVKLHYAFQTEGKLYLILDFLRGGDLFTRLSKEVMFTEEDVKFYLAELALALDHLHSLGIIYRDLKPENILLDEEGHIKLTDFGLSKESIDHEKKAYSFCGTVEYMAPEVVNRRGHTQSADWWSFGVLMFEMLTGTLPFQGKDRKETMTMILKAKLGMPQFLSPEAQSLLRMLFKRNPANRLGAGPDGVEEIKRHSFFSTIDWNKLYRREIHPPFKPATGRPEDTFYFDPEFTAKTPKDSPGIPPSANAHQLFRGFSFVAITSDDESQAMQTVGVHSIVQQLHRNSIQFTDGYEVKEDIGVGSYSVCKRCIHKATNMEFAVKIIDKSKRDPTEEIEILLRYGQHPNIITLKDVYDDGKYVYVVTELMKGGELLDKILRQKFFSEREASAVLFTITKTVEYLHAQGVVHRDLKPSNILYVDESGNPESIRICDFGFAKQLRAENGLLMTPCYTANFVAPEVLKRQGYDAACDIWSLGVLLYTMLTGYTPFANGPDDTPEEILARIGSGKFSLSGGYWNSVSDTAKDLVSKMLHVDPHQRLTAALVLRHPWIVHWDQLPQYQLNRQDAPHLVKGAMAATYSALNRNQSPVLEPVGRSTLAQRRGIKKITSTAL

With `C[C@@H]1CNC(=O)c2cc3ccc(C(=O)Nc4cnn(Cc5ccccc5)c4)nc3n21` [Compound 0, (R)—N-(1-benzyl-1H-pyrazol-4-yl)-9-methyl-6-oxo-6,7,8,9-tetrahydropyrido[3′,2′:4,5]pyrrolo[1,2-a]pyrazine-2-carboxamide, reference compound] the “Solubility, 20 mg/ml Solution” value [1] was “not soluble; also recorded: poor or nonexistent solubility; also recorded: Precipitate”, the IC50 [2] was 0.2 µM and the IC50 ([3]; Homo sapiens, Hematopoietic stem cell, CD34+ cells from peripheral blood, read-out: CD34+ (PB) IC50) was 10 µM. For the same compound, the “Therapeutic Window” value ([3]; ratio IC50 against CD34+ cells and MDA-MB-231 cells (SA)) was 50X.

In the case of `O=C(Nc1ccc2[nH]cc(CN3CCOCC3)c2c1)c1cnn(Cc2ccccc2)c1` [Compound 1, 1-Benzyl-N-(3-(morpholinomethyl)-1H-indol-5-yl)-1H-pyrazole-4-carboxamide], the IC50 [4] is reported as greater than 10 µM.

For `O=C(Nc1ccc2c(CN3CCOCC3)c[nH]c2c1)c1cnn(Cc2ccccc2)c1` [Compound 2, 1-Benzyl-N-(3-(morpholinomethyl)-1H-indol-6-yl)-1H-pyrazole-4-carboxamide], the IC50 [4] was greater than 10 µM.

With `CN1CCN(Cc2c[nH]c3ccc(NC(=O)c4cnn(Cc5ccccc5)c4)cc23)CC1` [Compound 3, 1-Benzyl-N-(3-((4-methylpiperazin-1-yl)methyl)-1H-indol-5-yl)-1H-pyrazole-4-carboxamide] the IC50 [4] was greater than 10 µM.

In the case of `CN1CCN(Cc2c[nH]c3cc(NC(=O)c4cnn(Cc5ccccc5)c4)ccc23)CC1` [Compound 4, 1-Benzyl-N-(3-((4-methylpiperazin-1-yl)methyl)-1H-indol-6-yl)-1H-pyrazole-4-carboxamide], the IC50 [4] is reported as greater than 10 µM.

Work on `O=C(Nc1ccc2scc(CN3CCOCC3)c2c1)c1cnn(Cc2ccccc2)c1` [Compound 5, 1-Benzyl-N-(3-(morpholinomethyl)benzo[b]thiophen-5-yl)-1H-pyrazole-4-carboxamide] yielded an IC50 [4] greater than 10 µM.

For `O=C(Nc1ccc2scc(CN3CCNCC3)c2c1)c1cnn(Cc2ccccc2)c1` [Compound 6, 1-Benzyl-N-(3-(piperazin-1-ylmethyl)benzo[b]thiophen-5-yl)-1H-pyrazole-4-carboxamide], the IC50 [4] was greater than 10 µM.

Work on `O=C(Nc1ccc2c(CN3CCOCC3)coc2c1)c1cnn(Cc2ccccc2)c1` [Compound 7, 1-benzyl-N-(3-(morpholinomethyl)benzofuran-6-yl)-1H-pyrazole-4-carboxamide] yielded an IC50 [4] greater than 10 µM.

`O=C(Nc1ccc2occ(CN3CCOCC3)c2c1)c1cnn(Cc2ccccc2)c1` [Compound 8, 1-benzyl-N-(3-(morpholinomethyl)benzofuran-5-yl)-1H-pyrazole-4-carboxamide] showed an IC50 [4] greater than 10 µM.

In the case of `O=C(Nc1ccc2occ(CN3CCNCC3)c2c1)c1cnn(Cc2ccccc2)c1` [Compound 9, 1-benzyl-N-(3-(piperazin-1-ylmethyl)benzofuran-5-yl)-1H-pyrazole-4-carboxamide], the IC50 [4] is reported as greater than 10 µM.

With `O=C(Nc1ccc2c(CN3CCNCC3)coc2c1)c1cnn(Cc2ccccc2)c1` [Compound 10, 1-benzyl-N-(3-(piperazin-1-ylmethyl)benzofuran-6-yl)-1H-pyrazole-4-carboxamide] the IC50 [4] was greater than 1 µM.

`C[C@@H]1CNC(=O)c2cc3ccc(NC(=O)c4cnn(Cc5ccccc5)c4)cc3n21` [Compound 11, (R)-1-benzyl-N-(4-methyl-1-oxo-1,2,3,4-tetrahydropyrazino[1,2-a]indol-7-yl)-1H-pyrazole-4-carboxamide] showed an IC50 [5] of 48.5 ± 2.6 µM, an IC50 [6] greater than 50 µM and an IC50 [7] greater than 50 µM. The IC50 [8] was greater than 50 µM, the IC50 [9] was greater than 50 µM and the IC50 [10] was 24.6 ± 10.3 µM. For the same compound, the IC50 [11] was greater than 50 µM, the IC50 [12] was 44.9 ± 8.8 µM and the IC50 [13] was 36 ± 12.8 µM. It also gave an IC50 [14] of 36.4 ± 11.9 µM, an IC50 [15] of 48.1 ± 3.3 µM and an IC50 [16] greater than 50 µM. It also gave an IC50 [17] greater than 50 µM, an IC50 [18] of 37.3 ± 2.3 µM and an IC50 [19] of 30.1 ± 3.3 µM. The IC50 [20] was 39.5 ± 9.4 µM, the IC50 [21] was greater than 50 µM and the IC50 [22] was 45 ± 8.7 µM. The IC50 [23] was 17.9 ± 7.3 µM, the IC50 [24] was 45.6 ± 4.8 µM and the IC50 [25] was 33.6 ± 14.5 µM. The IC50 [26] was 44.6 ± 3.9 µM.

For `O=C(Nc1ccc2cc3n(c2c1)CCNC3=O)c1cnn(Cc2ccccc2)c1` [Compound 12, 1-benzyl-N-(1-oxo-1,2,3,4-tetrahydropyrazino[1,2-a]indol-7-yl)-1H-pyrazole-4-carboxamide], the IC50 [4] was greater than 1 µM.

Compound `CN1CCc2oc3ccc(NC(=O)c4cnn(Cc5ccccc5)c4)cc3c2C1` [Compound 13, 1-benzyl-N-(2-methyl-1,2,3,4-tetrahydrobenzofuro[3,2-c]pyridin-8-yl)-1H-pyrazole-4-carboxamide] has an IC50 [4] greater than 1 µM.

Work on `CN1CCc2[nH]c3ccc(NC(=O)c4cnn(Cc5ccccc5)c4)cc3c2C1` [Compound 14, 1-benzyl-N-(2-methyl-2,3,4,5-tetrahydro-1H-pyrido[4,3-b]indol-8-yl)-1H-pyrazole-4-carboxamide] yielded an IC50 [4] greater than 1 µM.

With `C[C@@H]1CNC(=O)c2cc3ccc(C(=O)Nc4cnn(CC5CCN(C)CC5)c4)nc3n21` [Compound 20, (R)-9-methyl-N-(1-((1-methylpiperidin-4-yl)methyl)-1H-pyrazol-4-yl)-6-oxo-6,7,8,9-tetrahydropyrido[3′,2′:4,5]pyrrolo[1,2-a]pyrazine-2-carboxamide] the “Solubility, 20 mg/ml Solution” value [1] was “Soluble” and the “pH of 20 mg/ml solution” value ([1]; DMSO stock diluted in DMEM, pH test strips) was 8.
